Where two headings read alike, the source gives them in different places.
Assays:
[1] = system: Key Broadleaf Weed and Crop Species; experiment: Post-emergent Test II herbicidal activity (Table 5); assay type: in vivo; conditions: post-emergence, 336 h, post-emergent, 14 days after application; for pest or weed control at 70 g/ha: 70 g ai/ha; for pest or weed control at 140 g/ha: 140 g ai/ha
Method in brief: (§1)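 Plants grown in Metro-Mix 360 (pH 6.0–6.8) in a greenhouse (~15 h photoperiod, 23–29 °C day) to first or second true leaf stage, then sprayed with compound in acetone/DMSO/aqueous crop-oil-surfactant carrier at 187 L/ha by track sprayer. Injury visually scored 0–100% versus untreated plants after 14 d.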

[2] = system: Key Grass and Sedge Weeds as well as Grass Crops; experiment: Post-emergent Test II herbicidal activity (Table 6); assay type: in vivo; conditions: post-emergence, 336 h; for pest or weed control at 70 g/ha: application rate 70 g ai/ha; for pest or weed control at 140 g/ha: application rate 140 g ai/ha
Method in brief: as §1

[3] = ABUTH: velvetleaf (Abutilon theophrasti), read-out: Visual Growth Reduction (%) 14 Days After Application ABUTH
[4] = AMARE: redroot pigweed (Amaranthus retroflexus), read-out: Visual Growth Reduction (%) 14 Days After Application AMARE
[5] = BRSNN: oilseed-rape, canola (Brassica napus), read-out: Visual Growth Reduction (%) 14 Days After Application BRSNN
[6] = CHEAL: lambsquarters (Chenopodium album), read-out: Visual Growth Reduction (%) 14 Days After Application CHEAL
[7] = EPHHL: wild poinsettia (Euphorbia heterophylla), read-out: Visual Growth Reduction (%) 14 Days After Application EPHHL
[8] = HELAN: sunflower (Helianthus annuus), read-out: Visual Growth Reduction (%) 14 Days After Application HELAN
[9] = VIOTR: wild pansy (Viola tricolor), read-out: Visual Growth Reduction (%) 14 Days After Application VIOTR
[10] = Triticum aestivum, TRZSS (wheat), read-out: Visual Growth Reduction (%) 14 Days After Application, TRZSS
[11] = CYPES: yellow nutsedge (Cyperus esculentus), read-out: Visual Growth Reduction (%) 14 Days After Application, CYPES
[12] = DIGSA: crabgrass (Digitaria sanguinalis), read-out: Visual Growth Reduction (%) 14 Days After Application, DIGSA
[13] = ECHCG: barnyardgrass (Echinochloa crus-galli), read-out: Visual Growth Reduction (%) 14 Days After Application, ECHCG
[14] = ORYSA: rice (Oryza sativa), read-out: Visual Growth Reduction (%) 14 Days After Application, ORYSA
[15] = SETFA: giant foxtail (Setaria faberi), read-out: Visual Growth Reduction (%) 14 Days After Application, SETFA
[16] = SORVU: grain sorghum (Sorghum vulgare), read-out: Visual Growth Reduction (%) 14 Days After Application, SORVU
[17] = ZEAMX: maize, corn (Zea mays), read-out: Visual Growth Reduction (%) 14 Days After Application, ZEAMX

Compound: C=Cc1c(C(=O)O)nc(-c2ccc(I)cc2)c(F)c1N [Compound 17]
- pest or weed control at 70 g/ha [1, 3]: 95 to 100%
- pest or weed control at 140 g/ha [1, 3]: 95 to 100%
- pest or weed control at 70 g/ha [1, 4]: 95 to 100%
- pest or weed control at 140 g/ha [1, 4]: 95 to 100%
- pest or weed control at 70 g/ha [1, 5]: 95 to 100%
- pest or weed control at 140 g/ha [1, 5]: 95 to 100%
- pest or weed control at 70 g/ha [1, 6]: 85 to 94%
- pest or weed control at 140 g/ha [1, 6]: 95 to 100%
- pest or weed control at 70 g/ha [1, 7]: 95 to 100%
- pest or weed control at 140 g/ha [1, 7]: 95 to 100%
- pest or weed control at 70 g/ha [1, 8]: 85 to 94%
- pest or weed control at 140 g/ha [1, 8]: 95 to 100%
- pest or weed control at 70 g/ha [1, 9]: 0 to 29%
- pest or weed control at 140 g/ha [1, 9]: 0 to 29%
- pest or weed control at 70 g/ha [2, 10]: 30 to 44%
- pest or weed control at 140 g/ha [2, 10]: 45 to 59%
- pest or weed control at 70 g/ha [2, 11]: 95 to 100%
- pest or weed control at 140 g/ha [2, 11]: 95 to 100%
- pest or weed control at 70 g/ha [2, 12]: 0 to 29%
- pest or weed control at 140 g/ha [2, 12]: 0 to 29%
- pest or weed control at 70 g/ha [2, 13]: 75 to 84%
- pest or weed control at 140 g/ha [2, 13]: 85 to 94%
- pest or weed control at 70 g/ha [2, 14]: 60 to 74%
- pest or weed control at 140 g/ha [2, 14]: 85 to 94%
- pest or weed control at 70 g/ha [2, 15]: 0 to 29%
- pest or weed control at 140 g/ha [2, 15]: 45 to 59%
- pest or weed control at 70 g/ha [2, 16]: 85 to 94%
- pest or weed control at 140 g/ha [2, 16]: 95 to 100%
- pest or weed control at 70 g/ha [2, 17]: 60 to 74%
- pest or weed control at 140 g/ha [2, 17]: 75 to 84%

— patent US9113629B2, “4-amino-6-(4-substituted-phenyl)-picolinates and 6-amino-2-(4-substituted-phenyl)-pyrimidine-4-carboxylates and their use as herbicides” (DOW AGROSCIENCES LLC, priority 2013, dated 2015)
